In ChEMBL document CHEMBL5233239, “Matrix metalloproteinase-9 (MMP-9) and its inhibitors in cancer: A minireview” (Eur J Med Chem, 2020):
One block for each molecule: values may come before it.

Key:
[1] = molecular target: T1, Collagenase 3 (Homo sapiens, UniProt P45452); assay: Inhibition of human MMP13 using Dnp-Pro-Cha-Gly-Cys(Me)-His-Ala-Lys(Nma)-NH2 substrate by fluorimetric analysis
[2] = molecular target: T2, Matrix metalloproteinase-9 (Homo sapiens, UniProt P14780); assay: Inhibition of human MMP9 using Dnp-Pro-Cha-Gly-Cys(Me)-His-Ala-Lys(Nma)-NH2 substrate by fluorimetric analysis
[3] = molecular target: T3, Stromelysin-1 (Homo sapiens, UniProt P08254); assay: Inhibition of human MMP3 using (7-methoxycoumarine-4-yl)-Arg-Pro-Lys-Pro-Tyr-Ala-Nva-Trp-Met-Lys(Dnp)-NH2 substrate by fluorimetric analysis
[4] = molecular target: T4, Interstitial collagenase (Homo sapiens, UniProt P03956); assay: Inhibition of human MMP1 using Dnp-Pro-Cha-Gly-Cys(Me)-His-Ala-Lys(Nma)-NH2 substrate by fluorimetric analysis
T4 sequence (P03956 whole entry): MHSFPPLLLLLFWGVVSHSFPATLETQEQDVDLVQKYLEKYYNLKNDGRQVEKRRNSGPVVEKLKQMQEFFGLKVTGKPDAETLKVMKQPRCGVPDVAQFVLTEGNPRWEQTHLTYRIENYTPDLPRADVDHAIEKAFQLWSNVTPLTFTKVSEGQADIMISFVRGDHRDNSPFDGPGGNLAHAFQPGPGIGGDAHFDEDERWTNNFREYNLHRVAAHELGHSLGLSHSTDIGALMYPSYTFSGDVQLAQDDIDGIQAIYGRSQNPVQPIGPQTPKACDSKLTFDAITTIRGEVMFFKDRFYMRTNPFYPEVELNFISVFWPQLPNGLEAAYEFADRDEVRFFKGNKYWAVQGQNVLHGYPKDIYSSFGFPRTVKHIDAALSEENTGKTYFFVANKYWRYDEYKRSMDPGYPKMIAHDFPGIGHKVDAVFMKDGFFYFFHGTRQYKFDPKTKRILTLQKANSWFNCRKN

[5] = molecular target: T5, 72 kDa type IV collagenase (Homo sapiens, UniProt P08253); assay: Inhibition of human MMP2 using Dnp-Pro-Cha-Gly-Cys(Me)-His-Ala-Lys(Nma)-NH2 substrate by fluorimetric analysis
[6] = molecular target: T1, Collagenase 3
Description: Inhibition of MMP-13 (unknown origin)

[7] = molecular target: T2, Matrix metalloproteinase-9; assay: Inhibition of MMP-9 (unknown origin)
[8] = molecular target: T2, Matrix metalloproteinase-9; assay: Inhibition of MMP-9 (unknown origin) using Ac-Pro-Leu-Gly-SCH(CH2 CH(CH3)2)CO-Leu-Gly-OCH2CH3 as substrate preincubated of 0.5 hrs followed by substrate addition and measured after 3 hrs by fluorescence analysis
[9] = Cmax in mouse plasma at 200 mg/kg, po by HPLC analysis; type: ADME, organism-based; set-up: dose 200 mg/kg, route po
[10] = molecular target: T4, Interstitial collagenase; assay: Inhibition of MMP-1 (unknown origin)
[11] = molecular target: Disintegrin and metalloproteinase domain-containing protein 17 (Homo sapiens, UniProt P78536); assay: Inhibition of TACE (unknown origin)
[12] = molecular target: T5, 72 kDa type IV collagenase
[13] = molecular target: T2, Matrix metalloproteinase-9; assay: Inhibition of recombinant human MMP9 using […] as substrate incubated for 20 to 30 mins by fluorescence microplate reader analysis
[14] = molecular target: T4, Interstitial collagenase; assay: Inhibition of recombinant human MMP1 expressed in Escherichia coli BL21 (DE3) using Mca-Pro-Leu-Gly-Leu-Dpa-Ala-Arg-NH2 as substrate incubated for 20 to 30 mins by fluorescence assay
[15] = molecular target: T6, Matrilysin (Homo sapiens, UniProt P09237); assay: Inhibition of recombinant human MMP7 using […] as substrate incubated for 20 to 30 mins by fluorescence microplate reader analysis
T6 sequence (P09237 whole entry): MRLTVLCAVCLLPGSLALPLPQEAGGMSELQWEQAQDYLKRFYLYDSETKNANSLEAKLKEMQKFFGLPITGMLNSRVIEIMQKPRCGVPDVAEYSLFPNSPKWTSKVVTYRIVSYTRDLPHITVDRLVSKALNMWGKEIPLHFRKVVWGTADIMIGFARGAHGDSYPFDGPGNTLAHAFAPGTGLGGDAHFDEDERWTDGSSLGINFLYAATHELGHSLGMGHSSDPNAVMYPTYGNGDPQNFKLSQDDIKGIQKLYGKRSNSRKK

[16] = molecular target: T5, 72 kDa type IV collagenase; assay: Inhibition of recombinant human full length MMP2 using […] as substrate incubated for 20 to 30 mins by fluorescence microplate reader analysis
[17] = molecular target: T7, Neutrophil collagenase (Homo sapiens, UniProt P22894); assay: Inhibition of recombinant human MMP8 using […] as substrate incubated for 20 to 30 mins by fluorescence microplate reader analysis
[18] = molecular target: T3, Stromelysin-1; assay: Inhibition of recombinant human MMP3 expressed in Escherichia coli BL21 (DE3) using [3H]transferrin as substrate incubated for 3 hrs by scintillation counter analysis
[19] = molecular target: T5, 72 kDa type IV collagenase; assay: Inhibition of MMP-2 (unknown origin) by fluorimetric assay
[20] = molecular target: T4, Interstitial collagenase; assay: Inhibition of MMP-1 (unknown origin) by fluorimetric assay
[21] = molecular target: T2, Matrix metalloproteinase-9; assay: Inhibition of MMP-9 (unknown origin) by fluorimetric assay
[22] = molecular target: T6, Matrilysin; assay: Inhibition of MMP-7 (unknown origin)
[23] = molecular target: T7, Neutrophil collagenase; assay: Inhibition of MMP-8 (unknown origin)

T5 sequence (P08253 whole entry): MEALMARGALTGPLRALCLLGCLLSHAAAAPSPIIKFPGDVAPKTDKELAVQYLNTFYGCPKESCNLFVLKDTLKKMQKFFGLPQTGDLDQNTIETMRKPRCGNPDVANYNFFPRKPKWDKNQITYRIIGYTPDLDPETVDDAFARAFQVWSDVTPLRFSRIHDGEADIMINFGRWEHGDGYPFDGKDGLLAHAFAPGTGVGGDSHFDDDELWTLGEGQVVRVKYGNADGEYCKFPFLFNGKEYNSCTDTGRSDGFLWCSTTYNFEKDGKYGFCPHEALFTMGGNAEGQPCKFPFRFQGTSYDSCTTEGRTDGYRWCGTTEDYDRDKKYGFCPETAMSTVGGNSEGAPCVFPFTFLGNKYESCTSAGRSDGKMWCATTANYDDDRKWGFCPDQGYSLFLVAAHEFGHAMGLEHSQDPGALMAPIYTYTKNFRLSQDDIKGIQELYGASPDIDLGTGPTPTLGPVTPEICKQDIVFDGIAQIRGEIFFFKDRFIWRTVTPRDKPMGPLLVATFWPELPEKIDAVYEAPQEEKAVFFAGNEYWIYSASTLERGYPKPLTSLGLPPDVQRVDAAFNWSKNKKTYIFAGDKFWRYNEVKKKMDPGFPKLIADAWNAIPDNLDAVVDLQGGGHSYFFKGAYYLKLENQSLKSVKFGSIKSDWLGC
T2 sequence (P14780 whole entry): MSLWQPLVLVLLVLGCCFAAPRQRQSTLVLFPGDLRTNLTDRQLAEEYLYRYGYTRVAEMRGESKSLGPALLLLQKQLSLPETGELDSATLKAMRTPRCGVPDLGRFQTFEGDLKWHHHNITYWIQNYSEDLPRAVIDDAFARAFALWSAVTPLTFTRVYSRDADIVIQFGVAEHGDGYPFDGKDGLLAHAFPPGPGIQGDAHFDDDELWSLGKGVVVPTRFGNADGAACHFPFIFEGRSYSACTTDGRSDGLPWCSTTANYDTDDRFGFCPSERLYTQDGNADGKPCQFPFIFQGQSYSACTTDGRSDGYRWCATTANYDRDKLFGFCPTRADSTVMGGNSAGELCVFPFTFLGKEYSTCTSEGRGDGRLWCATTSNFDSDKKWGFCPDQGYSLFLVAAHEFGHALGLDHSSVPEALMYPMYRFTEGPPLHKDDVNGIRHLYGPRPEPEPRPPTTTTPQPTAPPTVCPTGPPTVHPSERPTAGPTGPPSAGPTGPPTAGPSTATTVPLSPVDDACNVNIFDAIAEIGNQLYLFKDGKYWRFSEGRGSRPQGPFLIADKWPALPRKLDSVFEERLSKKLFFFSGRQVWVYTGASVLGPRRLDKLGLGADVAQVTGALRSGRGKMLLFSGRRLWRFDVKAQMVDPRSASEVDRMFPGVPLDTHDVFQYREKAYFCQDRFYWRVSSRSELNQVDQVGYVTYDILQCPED
T3 sequence (P08254 whole entry): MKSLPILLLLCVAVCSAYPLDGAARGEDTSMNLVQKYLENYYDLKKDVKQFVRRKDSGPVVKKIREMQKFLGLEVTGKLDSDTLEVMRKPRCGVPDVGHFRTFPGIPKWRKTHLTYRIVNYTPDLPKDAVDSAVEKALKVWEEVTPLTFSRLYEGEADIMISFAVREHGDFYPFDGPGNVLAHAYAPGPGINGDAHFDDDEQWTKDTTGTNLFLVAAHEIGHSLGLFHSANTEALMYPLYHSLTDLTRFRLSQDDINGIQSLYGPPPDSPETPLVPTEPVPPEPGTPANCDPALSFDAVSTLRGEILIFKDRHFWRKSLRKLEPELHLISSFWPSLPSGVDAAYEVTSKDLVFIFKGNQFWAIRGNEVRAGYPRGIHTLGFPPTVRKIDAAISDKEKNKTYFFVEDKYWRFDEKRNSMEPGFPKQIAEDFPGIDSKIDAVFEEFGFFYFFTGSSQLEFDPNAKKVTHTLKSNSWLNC
Chain of Disintegrin and metalloproteinase domain-containing protein 17 (P78536 whole entry, the tested form may be a part): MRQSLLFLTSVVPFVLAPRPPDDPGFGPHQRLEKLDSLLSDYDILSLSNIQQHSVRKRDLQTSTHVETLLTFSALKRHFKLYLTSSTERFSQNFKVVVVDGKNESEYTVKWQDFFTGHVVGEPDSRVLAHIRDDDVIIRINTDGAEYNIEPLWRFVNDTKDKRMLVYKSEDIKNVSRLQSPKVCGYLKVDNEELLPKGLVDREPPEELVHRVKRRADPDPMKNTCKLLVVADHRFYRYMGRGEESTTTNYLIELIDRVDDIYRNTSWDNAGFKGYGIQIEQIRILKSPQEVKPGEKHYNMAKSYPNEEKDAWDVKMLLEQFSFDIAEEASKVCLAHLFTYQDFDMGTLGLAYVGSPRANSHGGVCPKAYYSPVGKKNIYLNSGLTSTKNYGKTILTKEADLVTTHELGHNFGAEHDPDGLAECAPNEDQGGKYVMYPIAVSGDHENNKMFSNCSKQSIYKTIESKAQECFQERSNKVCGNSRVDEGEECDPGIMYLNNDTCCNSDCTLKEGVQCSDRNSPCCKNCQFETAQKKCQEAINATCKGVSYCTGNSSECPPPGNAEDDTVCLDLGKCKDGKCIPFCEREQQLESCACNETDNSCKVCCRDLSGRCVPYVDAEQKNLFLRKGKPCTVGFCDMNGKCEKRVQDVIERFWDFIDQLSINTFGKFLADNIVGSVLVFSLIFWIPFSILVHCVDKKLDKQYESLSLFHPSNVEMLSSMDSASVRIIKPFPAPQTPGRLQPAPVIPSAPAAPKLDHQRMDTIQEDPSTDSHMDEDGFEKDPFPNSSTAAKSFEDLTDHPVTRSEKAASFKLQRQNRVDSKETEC
T7 sequence (P22894 whole entry): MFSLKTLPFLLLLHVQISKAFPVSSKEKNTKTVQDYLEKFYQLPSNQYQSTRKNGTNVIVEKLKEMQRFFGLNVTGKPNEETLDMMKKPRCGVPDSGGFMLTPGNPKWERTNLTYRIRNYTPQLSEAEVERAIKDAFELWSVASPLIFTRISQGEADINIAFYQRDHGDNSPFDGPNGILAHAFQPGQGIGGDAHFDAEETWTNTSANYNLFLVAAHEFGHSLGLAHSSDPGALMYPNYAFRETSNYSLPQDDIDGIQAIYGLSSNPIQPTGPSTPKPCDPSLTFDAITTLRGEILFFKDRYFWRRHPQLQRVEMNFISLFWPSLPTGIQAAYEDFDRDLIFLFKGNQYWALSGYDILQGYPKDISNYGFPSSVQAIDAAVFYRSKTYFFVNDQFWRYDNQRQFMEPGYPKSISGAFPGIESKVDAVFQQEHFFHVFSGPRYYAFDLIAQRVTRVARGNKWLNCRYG

Compound: Cc1ccc(C#Cc2ccc(S(=O)(=O)N[C@H](C(=O)O)C(C)C)s2)cc1
IC50 [8]: 14 nM
Cmax [9]: 284 µM

Compound: CN(C)c1ccc(-c2cn(-c3ccc(S(=O)(=O)NC(Cc4ccccc4)C(=O)NO)cc3)nn2)cc1 (stereo not drawn)
IC50 [7]: 1.06 nM
IC50 [12]: 0.32 nM

Compound: CNC(=O)[C@H](Cc1ccccc1)NC(=O)[C@H](CC(C)C)[C@H](CSc1cccs1)C(=O)NO [BATIMASTAT]
IC50 [7]: 1 nM

Compound: CC1(C)NC(=O)N(C[C@H](CS(=O)(=O)c2ccc(-c3ccc(OC(F)(F)F)cc3)cc2)N(O)C=O)C1=O
IC50 [19]: 0.86 nM
IC50 [20]: 82 nM
IC50 [21]: 0.34 nM

Other lines, results leading:

IC50 [1]: 5.5 nM
IC50 [2]: 0.9 nM
IC50 [3]: 6.7 nM
IC50 [4]: 198 nM
IC50 [5]: 1.64 nM
Compound: COc1ccc(S(=O)(=O)N2CC(C)(C)C(CCSCc3ccccc3)C2C(=O)NO)cc1 (stereo not drawn)

IC50 [6]: 2 nM
IC50 [7]: 1 nM
Compound: COc1ccc(S(=O)(=O)N(Cc2ccccn2)c2c(C)cc(-c3cccc(C(F)(F)F)c3)cc2C(=O)NO)cc1

IC50 [10]: 74 nM
IC50 [6]: 39 nM
IC50 [7]: 2 nM
IC50 [11]: 633 nM
Compound: COc1ccc(S(=O)(=O)N(c2c(C)cc(-c3cccc(C(F)(F)F)c3)cc2C(=O)NO)N(C)C)cc1

IC50 [13]: 0.5 nM
IC50 [14]: 2.4 nM
IC50 [15]: 18 nM
IC50 [16]: 1.4 nM
IC50 [17]: 1.9 nM
IC50 [18]: 3.3 nM
Compound: COc1ccc(S(=O)(=O)N2CCCC(C)(C)CC2C(=O)NO)cc1 (stereo not drawn)

IC50 [10]: 608 nM
IC50 [6]: 14 nM
IC50 [7]: 5 nM
IC50 [11]: 174 nM
Compound: COc1ccc(S(=O)(=O)N(C)c2c(CN3CCOCC3)cc(C)cc2C(=O)NO)cc1

IC50 [10]: 22.2 nM
IC50 [7]: 6.8 nM
IC50 [22]: > 10000 nM
IC50 [23]: 6.4 nM
Compound: COc1ccc(S(=O)(=O)N2CN(Cc3ccccc3)C(=O)CC2C(=O)NO)cc1 (stereo not drawn)
